This note sets out measurements from US11845752B2, “Substituted imidazo[1,5-a]pyrazines for the treatment of hepatitis B” (ALIGOS THERAPEUTICS, INC., priority 2020, dated 2023).

The test system of the experiment is HBV. Description: HBV-DNA antiviral assay using HepG2.117 cells (intracellular HBV DNA by qPCR). Format: cell-based, HBV genotype D. As to conditions: HBV DNA inhibition, 3 days incubation, read-out: EC50. The method in brief: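 Read-outs: cell-lysate HBV DNA copies by qPCR (interpolated from gBlock standard) and parallel cellular ATP luminescence for CC50, both normalised to 2% DMSO controls and fitted by non-linear regression. HepG2.117 Tet-off genotype D HBV cells, induced by doxycycline removal, exposed 3 days to 4-fold serial dilutions.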
In general terms: Quantitative PCR measures a nucleic acid by following its amplification.

The mark [1] stands for this setting: Hepatitis B virus, HepG2.117, 72 h.

Like-named read-outs stand apart in the source and are kept apart here.

One may read the EC50 as the midpoint of the concentration-response curve. For `CC1Cn2c(c(C(=O)NCc3ccccc3-c3ncccn3)n(-c3ccc(OC[C@@H](O)C(F)(F)F)cc3)c2=O)CN1C(=O)c1ccc(Br)c(C(F)(F)F)c1` (stereo in doubt) [Compound 71a, (6R*)-7-[4-bromo-3-(trifluoromethyl)benzoyl]-6-methyl-3-oxo-N-{[2-(pyrimidin-2-yl)phenyl]methyl}-2-{4-[(2R)-3,3,3-trifluoro-2-hydroxypropoxy]phenyl}-5H,6H,8H-imidazo[1,5-a]pyrazine-1-carboxamide], the EC50 under setting [1] was under 50 nM.
Take `O=C(NCc1ccccc1)c1c2n(c(=O)n1-c1ccc(N3CC4CCC(C3)O4)cc1)CCN(C(=O)c1ccc(Br)c(Cl)c1)C2` [Compound 121, N-benzyl-7-(4-bromo-3-chloro-benzoyl)-2-[4-(8-oxa-3-azabicyclo[3.2.1]octan-3-yl)phenyl]-3-oxo-6,8-dihydro-5H-imidazo[1,5-a]pyrazine-1-carboxamide]: the EC50 under setting [1] fell in the range of 50 to 500 nM.
For the compound `CC1Cn2c(c(C(=O)NCc3ccccc3-c3cc[nH]n3)n(-c3ccc(OC4CC4)cc3)c2=O)CN1C(=O)c1ccc(Br)c(Cl)c1` (single isomer, unassigned) [Compound 51a], the EC50 under setting [1] lay within 50 to 500 nM.
Consider `CNc1ccnc(-c2ccccc2CNC(=O)c2c3n(c(=O)n2-c2ccc(OC4CC4)cc2)CC(C)N(C(=O)c2ccc(Br)c(Cl)c2)C3)n1` (single isomer, unassigned) [Compound 26a], for which, under setting [1], the EC50 is under 50 nM.
For the compound `C[C@@H]1Cn2c(c(C(=O)NCc3ccccc3-c3ccncn3)n(-c3ccc4c(cnn4CC(F)(F)F)c3)c2=O)CN1C(=O)c1ccc(Br)c(C(F)(F)F)c1` (stereo in doubt) [Compound 72a, rac-(6R)-7-[4-bromo-3-(trifluoromethyl)benzoyl]-6-methyl-3-oxo-N-[(2-pyrimidin-4-ylphenyl)methyl]-2-[1-(2,2,2-trifluoroethyl)indazol-5-yl]-6,8-dihydro-SH-imidazo[1,5-a]pyrazine-1-carboxamide], the EC50 under setting [1] was under 50 nM.
For `C[C@@H]1Cn2c(c(C(=O)NCc3ccccc3-c3ccn(CC(F)(F)F)n3)n(-c3ccc4c(cnn4C[C@@H](C)O)c3)c2=O)CN1C(=O)c1ccc(Br)c(C(F)(F)F)c1` (mixture of isomers) [Compound 111a, (6RS)-7-[4-bromo-3-(trifluoromethyl)benzoyl]-2-[1-[(2R)-2-hydroxypropyl]indazol-5-yl]-6-methyl-3-oxo-N-[[2-[1-(2,2,2-trifluoroethyl)pyrazol-3-yl]phenyl]methyl]-6,8-dihydro-5H-imidazo[1,5-a]pyrazine-1-carboxamide], the EC50 under setting [1] was 50 to 500 nM.
In the case of `Cc1cc(C(=O)N2Cc3c(C(=O)NCc4ccccc4-c4ccncn4)n(-c4ccc(OC5CC5)cc4)c(=O)n3CC2C)ccc1Br` (single isomer, unassigned) [Compound 12a, 7-(4-bromo-3-methyl-benzoyl)-2-[4-(cyclopropoxy)phenyl]-6-methyl-3-oxo-N-[(2-pyrimidin-4-ylphenyl)methyl]-6,8-dihydro-5H-imidazo[1,5-a]pyrazine-1-carboxamide], the EC50 under setting [1] was 50 to 500 nM.
In the case of `Cc1nnc(-c2ccccc2CNC(=O)c2c3n(c(=O)n2-c2ccc4oc(C)nc4c2)CC(C)N(C(=O)c2ccc(Br)c(C(F)(F)F)c2)C3)o1` (single isomer, unassigned) [Compound 54a], the EC50 under setting [1] was under 50 nM.
As for `C[C@H]1Cn2c(c(C(=O)NCc3ccccc3-c3ccncn3)n(-c3ccc(N4CCN(C)[C@H](C(F)(F)F)C4)cc3)c2=O)CN1C(=O)c1ccc(Br)c(C(F)(F)F)c1` (mixture of isomers) [Compound 87b, (6SR)-7-[4-bromo-3-(trifluoromethyl)benzoyl]-6-methyl-2-[4-[(3S)-4-methyl-3-(trifluoromethyl)piperazin-1-yl]phenyl]-3-oxo-N-[(2-pyrimidin-4-ylphenyl)methyl]-6,8-dihydro-5H-imidazo[1,5-a]pyrazine-1-carboxamide], the EC50 under setting [1] is under 50 nM.
On the same count and under the same terms, to `CN[C@H](C)COc1ccc(-n2c(C(=O)NCc3ccccc3-c3ncccn3)c3n(c2=O)C[C@H](C)N(C(=O)c2ccc(Br)c(C(F)(F)F)c2)C3)cc1` (racemic) [Compound 95b, rac-(6S)-7-[4-bromo-3-(trifluoromethyl)benzoyl]-6-methyl-2-[4-[2-(methylamino)propoxy]phenyl]-3-oxo-N-[(2-pyrimidin-2-ylphenyl)methyl]-6,8-dihydro-5H-imidazo[1,5-a]pyrazine-1-carboxamide] belongs 50 to 500 nM.
In the case of `CC1Cn2c(c(C(=O)NCc3ccccc3-c3cc(N)cnn3)n(-c3ccc(OC4CC4)cc3)c2=O)CN1C(=O)c1ccc(Br)c(C(F)(F)F)c1` (single isomer, unassigned) [Compound 43a], the EC50 lay within 500 to 5000 nM.
For `C[C@H](O)Cn1ncc2cc(-n3c(C(=O)NCc4ccccc4-c4ncccn4)c4n(c3=O)C[C@H](C)N(C(=O)c3ccc(Br)c(C(F)(F)F)c3)C4)ccc21` (mixture of isomers) [Compound 94b, (6SR)-7-[4-bromo-3-(trifluoromethyl)benzoyl]-2-[1-[(2S)-2-hydroxypropyl]indazol-5-yl]-6-methyl-3-oxo-N-[(2-pyrimidin-2-ylphenyl)methyl]-6,8-dihydro-5H-imidazo[1,5-a]pyrazine-1-carboxamide], under setting [1], the EC50 was 50 to 500 nM.
Still for that read-out and setting: under `C[C@H]1Cn2c(c(C(=O)NCc3ccccc3-c3ccncn3)n(-c3ccc(OC[C@H](O)C(F)(F)F)cc3)c2=O)CN1C(=O)c1ccc(Br)c(C(F)(F)F)c1` (racemic) [Compound 63b, (6SR)-7-[4-bromo-3-(trifluoromethyl)benzoyl]-6-methyl-3-oxo-N-[(2-pyrimidin-4-ylphenyl)methyl]-2-[4-[(25)-3,3,3-trifluoro-2-hydroxy-propoxy]phenyl]-6,8-dihydro-5H-imidazo[1,5-a]pyrazine-1-carboxamide] stands 50 to 500 nM.
For `CC1Cn2c(c(C(=O)NCc3c(F)cccc3-c3cccnn3)n(-c3ccc(OC4CC4)cc3)c2=O)CN1C(=O)c1ccc(Br)c(Cl)c1` (single isomer, unassigned) [Compound 49a], the EC50 under setting [1] was in the range of 50 to 500 nM.
Regarding `C[C@H](COc1ccc(-n2c(C(=O)NCc3ccccc3-c3ncccn3)c3n(c2=O)C[C@@H](C)N(C(=O)c2ccc(Br)c(C(F)(F)F)c2)C3)cc1)N1CCOCC1` (single isomer, unassigned) [Compound 96a], the EC50 under setting [1] is under 50 nM.
For the compound `CC1Cn2c(c(C(=O)NCc3ccccc3-c3ncccn3)n(-c3ccc(OC4CC4)cc3)c2=O)CN1C(=O)c1ccc(Br)c(Cl)c1` (single isomer, unassigned) [Compound 3b, (6R*)-7-(4-bromo-3-chloro-benzoyl)-2-[4-(cyclopropoxy)phenyl]-6-methyl-3-oxo-N-[(2-pyrimidin-2-ylphenyl)methyl]-6,8-dihydro-5H-imidazo[1,5-a]pyrazine-1-carboxamide], the EC50 lay in the range of 50 to 500 nM.
For `CC1Cn2c(c(C(=O)NCc3ccccc3-c3cc(N)cnn3)n(-c3ccc(OC4CC4)cc3)c2=O)CN1C(=O)c1ccc(Br)c(Cl)c1` (single isomer, unassigned) [Compound 42a], the EC50 lay within 500 to 5000 nM.
As to `CC1Cn2c(c(C(=O)NCc3ccccc3-c3ncccn3)n(-c3ccc4c(cnn4C[C@@H](C)O)c3)c2=O)CN1C(=O)c1ccc(Br)c(C(F)(F)F)c1` (stereo in doubt) [Compound 91a, (6R*)-7-[4-bromo-3-(trifluoromethyl)benzoyl]-2-{1-[(2R)-2-hydroxypropyl]indazol-5-yl}-6-methyl-3-oxo-N-{[2-(pyrimidin-2-yl)phenyl]methyl}-5H,6H,8H-imidazo[1,5-a]pyrazine-1-carboxamide], under setting [1], the EC50 is 50 to 500 nM.
